Experimental data reported in patent US7897759B2, “Metabolically stable puromycin analogs” (MUSC Foundation for Research Development, priority 2007, dated 2011).

Experiments:
leukemia (HL-60) cells = assay: MTS cytotoxicity assay in HL-60 cells; format: cell-based; conditions: 72 h, FIG. 2
Experimental: HL-60 cells were plated at a density of 4,000 cells/well (99 μL/well) in a 96-well microtiter plate. The drug (dissolved in 1 μL of DMSO/medium solution) was added and cells were incubated at 37° C. for 72 h. 20 μL of a solution of MTS/PMS (Promega, 5% PMS/MTS) was then added, the cells were incubated for 1 h, after which absorbance was read at 490 nm.

[1] = tested on: JC murine mammary adenocarcinoma cells growing in Balb/c mice; assay: Antitumor effects in murine mammary tumor model; format: in vivo; conditions: 50 mg/kg intraperitoneal on days 7 and 12, FIG. 3
Experimental: Model: JC murine mammary adenocarcinoma cells growing in Balb/c mice. Treatment is started when tumor are small, typically ˜20 mm3.
(§1) Treatment: Drug was administered by intraperitoneal injection on days 7, and 12 at 50 mg/kg dissolved in 50% DMSO:50% PBS.

[2] = Body weight / toxicity in murine mammary tumor model; format: in vivo
Experimental: Model: JC murine mammary adenocarcinoma cells growing in Balb/c mice.
as §1

[3] = tested on: breast cancer (MCF-7) cells; assay: SRB cytotoxicity assay in MCF-7 cells; format: cell-based; conditions: 72 h, FIG. 1
Experimental: Dump media and wash wells with PBS. Add approx 100 μL 10% TCA to wells using squirt bottle. Incubate at 4° C. for 30 minutes to 1 hour. Dump TCA and wash plate 5 times with water (use beaker for washes). Add 100 ul SRB dye to wells. Incubate at room temperature for 30 minutes. Dump dye and wash plate 4 times with 1% acetic acid (use beaker for washes). Add 200 μL Tris Base to wells. Incubate at room temperature with agitation for at least 1 hour. Use Softmax pro plate reader with SRB560.
MCF-7 cells were plated at a density of 50,000 cells/well (99 μL/well) in a 96-well microtiter plate and allowed to adhere at 37° C. for 4 h. The drug (dissolved in 1 μL of DMSO/medium solution) was added and cells were incubated at 37° C. for 72 h. 100 μL of a 10% solution of trichloroacetic acid was then added and the cells were incubated for 1 h at 4° C. The supernatant was removed and the plate was washed 5 times with water. 100 μL of SRB dye (Promega) was added and the plate was incubated at rt for 30 min. The dye was removed and the plate was washed 4 times with 1% acetic acid solution. 200 μL of Tris Base was added, and the plate was incubated at rt with agitation for 1 h. Absorbance was read at 560 nm.

[4] = tested on: Bacillus cereus ATCC 10987; conditions: B. cereus; Gilbert et al., Tetrahedron 2005; cited from earlier work
[5] = tested on: Bacillus subtilis ATCC 6633; conditions: B. subtilis; Gilbert et al., Tetrahedron 2005; cited from earlier work

## CN(C)c1ncnc2c1ncn2[C@@H]1O[C@H](CO)[C@H](CC(=O)[C@@H](N)Cc2ccccc2)C1O (stereo partly drawn) [GG-48, 9-{3-[1-(3-amino-2-oxo-4-phenyl)butyl]-3-deoxy-D-ribofuranosyl}-6-dimethylaminopurine]
Leukemia (HL-60) cells
  cytotoxic activity (killing curve) versus puromycin: killing curves overlapping those of puromycin
[1]
  effect on tumor growth: suppressed tumor growth
[2]; 50 mg/kg intraperitoneal on days 7 and 12
  toxicity: no obvious toxicity
[2]; 50 mg/kg intraperitoneal, during the treatment period (or after), FIG. 4
  effect on body weight: no loss of body weight
[3]
  cytotoxic activity (killing curve) versus puromycin: killing curves overlapping those of puromycin

## COc1ccc(C[C@H](N)C(=O)N[C@H]2[C@@H](O)[C@H](n3cnc4c(N(C)C)ncnc43)O[C@@H]2CO)cc1 [puromycin]
[4]
  antimicrobial activity (MIC): 3.13 µg/mL
[5]
  antimicrobial activity (MIC): 3.13 µg/mL
